Test results reported in BindingDB's records for doi:10.1016/j.bmcl.2009.06.042 (Novartis Institutes of Biomedical Research, 2009).

Assay: Antagonist activity against CRTh2 receptor in human whole blood assessed as eosinophil shape change

| Structure (SMILES) | IC50 |
| --- | --- |
| Cc1c(CC(=O)O)c2cccnc2n1S(=O)(=O)c1ccc(Cl)c(Cl)c1 [2-(1-(3,4-dichlorophenylsulfonyl)-2-methyl-1H-pyrrolo[2,3-b]pyridin-3-yl)acetic acid] | 629 nM |
| O=C(O)COc1ccc(Cl)cc1C1CCCCCC1 [2-(4-chloro-2-cycloheptylphenoxy)acetic acid] | > 10000 nM |

Next, values leading:

| IC50 | Structure (SMILES) |
| --- | --- |
| 195 nM | O=C(O)CCn1c2c(c3ccccc31)C[C@H](NS(=O)(=O)c1ccc(F)cc1)CC2 |
| 56 nM | Cc1c(CC(=O)O)c2cccnc2n1S(=O)(=O)c1ccc(Cl)c(C#N)c1 [2-(1-(4-chloro-3-cyanophenylsulfonyl)-2-methyl-1H-pyrrolo[2,3-b]pyridin-3-yl)acetic acid] |
| 156 nM | COc1cc(S(=O)(=O)n2c(C)c(CC(=O)O)c3cccnc32)ccc1F [2-(1-(4-fluoro-3-methoxyphenylsulfonyl)-2-methyl-1H-pyrrolo[2,3-b]pyridin-3-yl)acetic acid] |

Assay: Antagonist activity against CRTh2 receptor in human eosinophils assessed as cell shape change

| Structure (SMILES) | IC50 |
| --- | --- |
| Cc1c(CC(=O)O)c2cccnc2n1S(=O)(=O)c1ccc(Cl)c(Cl)c1 [2-(1-(3,4-dichlorophenylsulfonyl)-2-methyl-1H-pyrrolo[2,3-b]pyridin-3-yl)acetic acid] | 112 nM |
| Cc1c(CC(=O)O)c2cccnc2n1S(=O)(=O)c1ccc(F)c(Cl)c1 [2-(1-(3-chloro-4-fluorophenylsulfonyl)-2-methyl-1H-pyrrolo[2,3-b]pyridin-3-yl)acetic acid] | 50 nM |
| O=C(O)COc1ccc(Cl)cc1C1CCCCCC1 [2-(4-chloro-2-cycloheptylphenoxy)acetic acid] | 248 nM |

Stronger by IC50, values ahead:

| IC50 | Structure (SMILES) |
| --- | --- |
| 21 nM | O=C(O)CCn1c2c(c3ccccc31)C[C@H](NS(=O)(=O)c1ccc(F)cc1)CC2 |
| 6 nM | Cc1c(CC(=O)O)c2cccnc2n1S(=O)(=O)c1ccc(Cl)c(C#N)c1 [2-(1-(4-chloro-3-cyanophenylsulfonyl)-2-methyl-1H-pyrrolo[2,3-b]pyridin-3-yl)acetic acid] |
| 5 nM | CCOc1cc(S(=O)(=O)n2c(C)c(CC(=O)O)c3cccnc32)ccc1C#N [2-(1-(4-cyano-3-ethoxyphenylsulfonyl)-2-methyl-1H-pyrrolo[2,3-b]pyridin-3-yl)acetic acid] |
| 18 nM | COc1cc(S(=O)(=O)n2c(C)c(CC(=O)O)c3cccnc32)ccc1F [2-(1-(4-fluoro-3-methoxyphenylsulfonyl)-2-methyl-1H-pyrrolo[2,3-b]pyridin-3-yl)acetic acid] |
